Experimental findings from patent US10344060B2 (priority 2013, dated 2019) are described below.

Holding throughout (test): cell-based
The target of one experiment is rNav1.7 (Rattus norvegicus, UniProt O08562). To be noted: for pIC50: PatchXpress, tonic block, rat Nav1.7, read-out: PX rNav1.7 Tonic IC50; for rNav1.7/hNav1.7: ratio of PX tonic IC50, rat Nav1.7 over human Nav1.7.
The target of a further experiment is mNav1.7 (Mus musculus, UniProt Q62205). To be noted: for pIC50: PatchXpress, tonic block, mouse Nav1.7, read-out: PX mNav1.7 Tonic IC50; for mNav1.7/hNav1.7: ratio of PX tonic IC50, mouse Nav1.7 over human Nav1.7.
In another experiment the target is mouse Nav1.4 (Mus musculus, UniProt Q9ER60). To be noted: for pIC50: PatchXpress, tonic block, mouse Nav1.4, read-out: PX mNav1.4 Tonic IC50; for mNav1.4/mNav1.7: ratio of PX tonic IC50, mouse Nav1.4 over mouse Nav1.7.
For a further experiment, the target named is hNav1.7 (Homo sapiens, UniProt Q15858). Format: cell-based. As to conditions: PatchXpress, tonic block, human Nav1.7; read-out: PX hNav1.7 Tonic IC50.

pIC50: −log10 of the molar value.

rNav1.7, sequence (O08562 whole entry): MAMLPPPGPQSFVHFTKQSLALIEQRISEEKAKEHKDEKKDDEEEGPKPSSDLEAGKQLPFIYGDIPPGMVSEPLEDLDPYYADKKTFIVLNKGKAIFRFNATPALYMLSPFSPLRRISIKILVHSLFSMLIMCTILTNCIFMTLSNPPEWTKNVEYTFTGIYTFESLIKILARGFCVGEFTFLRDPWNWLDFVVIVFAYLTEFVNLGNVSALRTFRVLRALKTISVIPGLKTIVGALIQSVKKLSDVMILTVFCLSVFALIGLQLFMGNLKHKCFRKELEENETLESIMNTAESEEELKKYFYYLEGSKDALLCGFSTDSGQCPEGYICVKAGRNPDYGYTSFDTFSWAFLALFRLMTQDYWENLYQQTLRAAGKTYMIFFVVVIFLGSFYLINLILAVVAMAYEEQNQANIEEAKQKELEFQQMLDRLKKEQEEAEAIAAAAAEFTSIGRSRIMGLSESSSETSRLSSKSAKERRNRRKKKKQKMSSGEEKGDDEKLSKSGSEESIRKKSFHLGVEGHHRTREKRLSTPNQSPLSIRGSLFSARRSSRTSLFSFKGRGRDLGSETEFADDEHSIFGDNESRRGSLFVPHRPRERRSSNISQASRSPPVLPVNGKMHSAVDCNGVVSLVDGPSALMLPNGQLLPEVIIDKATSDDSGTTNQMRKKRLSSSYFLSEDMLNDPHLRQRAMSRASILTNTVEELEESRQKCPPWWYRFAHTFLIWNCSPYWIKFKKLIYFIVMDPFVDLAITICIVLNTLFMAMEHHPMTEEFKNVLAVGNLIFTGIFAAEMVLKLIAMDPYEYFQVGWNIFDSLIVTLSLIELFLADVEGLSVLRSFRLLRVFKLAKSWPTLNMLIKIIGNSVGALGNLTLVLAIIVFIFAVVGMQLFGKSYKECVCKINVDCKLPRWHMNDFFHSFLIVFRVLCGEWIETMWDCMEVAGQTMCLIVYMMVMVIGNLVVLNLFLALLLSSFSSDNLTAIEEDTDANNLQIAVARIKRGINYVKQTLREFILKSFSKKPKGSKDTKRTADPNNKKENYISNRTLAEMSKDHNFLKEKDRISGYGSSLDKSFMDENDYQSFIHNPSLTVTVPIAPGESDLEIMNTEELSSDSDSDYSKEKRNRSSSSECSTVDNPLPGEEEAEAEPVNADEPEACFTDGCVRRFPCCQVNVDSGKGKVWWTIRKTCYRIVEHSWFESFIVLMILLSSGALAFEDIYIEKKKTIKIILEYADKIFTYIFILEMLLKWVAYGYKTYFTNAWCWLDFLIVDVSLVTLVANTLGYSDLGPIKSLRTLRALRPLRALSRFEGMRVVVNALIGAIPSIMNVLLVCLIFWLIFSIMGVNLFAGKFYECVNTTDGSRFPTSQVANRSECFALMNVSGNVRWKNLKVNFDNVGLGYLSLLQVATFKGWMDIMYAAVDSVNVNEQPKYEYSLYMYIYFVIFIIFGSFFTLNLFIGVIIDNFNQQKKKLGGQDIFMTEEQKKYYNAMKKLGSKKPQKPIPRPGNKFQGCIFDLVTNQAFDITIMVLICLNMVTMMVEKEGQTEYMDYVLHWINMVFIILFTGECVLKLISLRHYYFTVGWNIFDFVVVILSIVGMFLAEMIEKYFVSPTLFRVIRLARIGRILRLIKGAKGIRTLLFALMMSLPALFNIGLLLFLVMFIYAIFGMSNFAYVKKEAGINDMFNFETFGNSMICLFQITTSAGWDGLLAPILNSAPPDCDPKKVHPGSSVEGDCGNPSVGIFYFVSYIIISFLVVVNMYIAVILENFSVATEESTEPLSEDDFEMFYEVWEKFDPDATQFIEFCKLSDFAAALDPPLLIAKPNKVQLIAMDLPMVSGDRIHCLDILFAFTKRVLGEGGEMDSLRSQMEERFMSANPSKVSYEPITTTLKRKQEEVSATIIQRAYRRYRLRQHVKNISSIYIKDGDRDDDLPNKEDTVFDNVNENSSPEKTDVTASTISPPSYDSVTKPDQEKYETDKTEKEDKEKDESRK
mouse Nav1.4, sequence (Q9ER60 whole entry): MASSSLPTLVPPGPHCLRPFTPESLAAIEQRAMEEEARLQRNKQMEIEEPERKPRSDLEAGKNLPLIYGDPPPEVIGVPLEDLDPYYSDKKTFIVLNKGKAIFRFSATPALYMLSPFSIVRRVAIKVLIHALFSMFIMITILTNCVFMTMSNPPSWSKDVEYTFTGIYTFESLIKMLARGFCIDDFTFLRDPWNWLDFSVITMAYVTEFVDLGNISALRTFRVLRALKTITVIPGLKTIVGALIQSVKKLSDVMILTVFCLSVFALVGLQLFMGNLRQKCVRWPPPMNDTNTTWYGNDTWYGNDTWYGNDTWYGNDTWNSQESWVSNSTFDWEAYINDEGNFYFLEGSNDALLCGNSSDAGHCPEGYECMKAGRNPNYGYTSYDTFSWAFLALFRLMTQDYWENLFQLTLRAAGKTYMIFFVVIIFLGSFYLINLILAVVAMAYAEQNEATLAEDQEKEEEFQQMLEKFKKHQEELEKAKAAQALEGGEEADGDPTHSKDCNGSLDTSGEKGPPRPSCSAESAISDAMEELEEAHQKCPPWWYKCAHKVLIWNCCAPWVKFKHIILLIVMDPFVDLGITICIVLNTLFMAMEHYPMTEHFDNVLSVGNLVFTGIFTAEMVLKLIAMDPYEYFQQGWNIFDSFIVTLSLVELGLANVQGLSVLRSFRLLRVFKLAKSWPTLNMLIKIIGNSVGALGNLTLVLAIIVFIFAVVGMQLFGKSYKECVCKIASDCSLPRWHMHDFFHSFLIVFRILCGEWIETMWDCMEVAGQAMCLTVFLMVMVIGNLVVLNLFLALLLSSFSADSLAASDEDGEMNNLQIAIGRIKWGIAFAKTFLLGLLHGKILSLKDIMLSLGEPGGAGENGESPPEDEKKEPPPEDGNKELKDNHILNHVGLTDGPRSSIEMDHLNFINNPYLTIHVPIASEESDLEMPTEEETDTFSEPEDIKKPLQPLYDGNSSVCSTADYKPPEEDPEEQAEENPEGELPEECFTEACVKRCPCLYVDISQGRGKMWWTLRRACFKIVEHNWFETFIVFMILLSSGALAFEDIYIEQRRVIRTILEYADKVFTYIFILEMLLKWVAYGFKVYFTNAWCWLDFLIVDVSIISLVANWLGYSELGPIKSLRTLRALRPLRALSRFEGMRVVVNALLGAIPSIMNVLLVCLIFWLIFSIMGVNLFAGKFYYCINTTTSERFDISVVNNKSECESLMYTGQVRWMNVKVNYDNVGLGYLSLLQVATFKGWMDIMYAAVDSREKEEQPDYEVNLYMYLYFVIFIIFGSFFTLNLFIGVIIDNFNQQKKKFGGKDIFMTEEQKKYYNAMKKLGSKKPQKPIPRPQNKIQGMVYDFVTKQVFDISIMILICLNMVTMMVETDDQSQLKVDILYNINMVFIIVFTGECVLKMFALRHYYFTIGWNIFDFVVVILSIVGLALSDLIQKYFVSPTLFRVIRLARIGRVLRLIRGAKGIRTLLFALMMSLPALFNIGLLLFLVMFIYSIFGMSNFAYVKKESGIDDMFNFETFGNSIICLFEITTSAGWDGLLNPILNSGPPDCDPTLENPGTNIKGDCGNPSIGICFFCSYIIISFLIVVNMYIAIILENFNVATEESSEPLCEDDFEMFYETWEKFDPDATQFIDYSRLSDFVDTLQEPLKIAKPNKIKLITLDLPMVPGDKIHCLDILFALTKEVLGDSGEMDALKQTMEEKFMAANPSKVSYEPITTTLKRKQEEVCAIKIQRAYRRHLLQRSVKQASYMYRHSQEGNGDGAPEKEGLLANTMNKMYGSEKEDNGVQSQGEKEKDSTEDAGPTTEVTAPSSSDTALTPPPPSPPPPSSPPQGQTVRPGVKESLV

Take `C#CC[C@H](N)C(=O)NCCCC[C@@H]1NC(=O)[C@H](CCCNC(=N)N)NC(=O)[C@H](CCCCN)NC(=O)[C@H](CO)NC(=O)[C@H](CC(=O)O)NC(=O)[C@@H]2CSSC[C@@H]3NC(=O)[C@H](CCCNC(=N)N)NC(=O)[C@H](CC(C)C)NC(=O)CNC(=O)[C@H](CCC(=O)O)NC(=O)[C@H](CSSC[C@H](NC(=O)[C@H](Cc4ccc(O)cc4)NC(=O)[C@@H](N)CC#N)C(=O)N[C@@H](CCC(N)=O)C(=O)N[C@@H](CCCCN)C(=O)N[C@@H](Cc4c[nH]c5ccccc45)C(=O)N[C@@H](CCCC)C(=O)N[C@@H](Cc4c[nH]c5ccccc45)C(=O)N[C@@H]([C@@H](C)O)C(=O)N2)NC(=O)[C@H](CSSC[C@@H](C(=O)N[C@@H](CCCNC(=N)N)C(=O)N[C@@H](CCCCN)C(=O)N[C@@H](CCC(=O)O)C(=O)N[C@H](C(N)=O)[C@@H](C)CC)NC(=O)[C@H](Cc2c[nH]c4ccccc24)NC(=O)[C@H](CC(C)C)NC(=O)[C@H](CCCCN)NC3=O)NC1=O`: at rNav1.7, the negative logarithm of the IC50 (pIC50) (commonly the negative decadic logarithm of the IC50, by convention in mol/L) was 8.56 and the rNav1.7/hNav1.7 amounted to 1.71. In addition, at mNav1.7, the pIC50 is 8.01 and the mNav1.7/hNav1.7 came to 6.15. Besides, on mouse Nav1.4, the pIC50 is 7.20 and the mNav1.4/mNav1.7 was determined as 6.4.
For `C#CC[C@@H]1NC(=O)[C@@H]2CSSC[C@H](NC(=O)[C@H](Cc3ccc(O)cc3)NC(=O)[C@@H](N)CC#N)C(=O)N[C@@H](CCC(N)=O)C(=O)N[C@@H](CCCCN)C(=O)N[C@@H](Cc3c[nH]c4ccccc34)C(=O)N[C@@H](CCCC)C(=O)N[C@@H](Cc3c[nH]c4ccccc34)C(=O)N[C@@H]([C@@H](C)O)C(=O)N[C@H]3CSSC[C@H](NC(=O)[C@H](CCCNC(=N)N)NC(=O)[C@H](CC(C)C)NC(=O)CNC1=O)C(=O)N[C@@H](CCCCN)C(=O)N[C@@H](CC(C)C)C(=O)N[C@@H](Cc1c[nH]c4ccccc14)C(=O)N[C@H](C(=O)N[C@@H](CCCNC(=N)N)C(=O)N[C@@H](CCCCN)C(=O)N[C@@H](CCC(=O)O)C(=O)N[C@H](C(N)=O)[C@@H](C)CC)CSSC[C@H](NC(=O)[C@H](C)NC(=O)[C@H](CCCNC(=N)N)NC(=O)[C@H](CCCCN)NC(=O)[C@H](CO)NC(=O)[C@H](CC(=O)O)NC3=O)C(=O)N2` [CyA-[Nle6, Pra17, Glu28]JzTx-V(1-29)], the values for the negative-log IC50 (pIC50) on rNav1.7, on mNav1.7 and on mouse Nav1.4 were 8.85, 8.32 and 7.49, respectively.
On to `CCCC[C@@H]1NC(=O)[C@H](Cc2c[nH]c3ccccc23)NC(=O)[C@H](CCCCN)NC(=O)[C@H](CCC(N)=O)NC(=O)[C@@H](NC(=O)[C@H](Cc2ccc(O)cc2)NC(=O)[C@@H](N)CC(C)C)CSSC[C@@H]2NC(=O)[C@@H]3CSSC[C@@H](C(=O)N[C@@H](CCCNC(=N)N)C(=O)N[C@@H](CCCCN)C(=O)N[C@H](C(=O)N[C@H](C(N)=O)[C@@H](C)CC)[C@@H](C)CC)NC(=O)[C@H](Cc4c[nH]c5ccccc45)NC(=O)[C@H](CC(C)C)NC(=O)[C@H](CCCCN)NC(=O)[C@H](CSSC[C@H](NC(=O)[C@H]([C@@H](C)O)NC(=O)[C@H](Cc4c[nH]c5ccccc45)NC1=O)C(=O)N[C@@H](CC(=O)O)C(=O)N[C@@H](CO)C(=O)N[C@@H](CCCCN)C(=O)N[C@@H](CCCNC(=N)N)C(=O)N[C@@H](C)C(=O)N3)NC(=O)[C@H](CCCNC(=N)N)NC(=O)[C@H](CC(C)C)NC(=O)CNC(=O)[C@H](CCC(=O)O)NC2=O` [Leu-[Nle6]JzTx-V(1-29)], for which the values for the negative-log IC50 (pIC50) on hNav1.7, at mNav1.7 and on mouse Nav1.4 were 9.89, 8.88 and 8.74, respectively. For the same compound, the mNav1.7/hNav1.7 at mNav1.7 came to 10.22. For the same compound, the mNav1.4/mNav1.7 on mouse Nav1.4 is 1.4.
For the compound `C#CC[C@H](N)C(=O)N[C@@H](CCC(=O)O)C(=O)N[C@H]1CSSC[C@@H]2NC(=O)[C@@H]3CSSC[C@@H](C(=O)N[C@@H](CCCNC(=N)N)C(=O)N[C@@H](CCCCN)C(=O)N[C@@H](CCC(=O)O)C(=O)N[C@H](C(N)=O)[C@@H](C)CC)NC(=O)[C@H](Cc4c[nH]c5ccccc45)NC(=O)[C@H](CC(C)C)NC(=O)[C@H](CCCCN)NC(=O)[C@H](CSSC[C@H](NC(=O)[C@H]([C@@H](C)O)NC(=O)[C@H](Cc4c[nH]c5ccccc45)NC(=O)[C@H](CCCC)NC(=O)[C@H](Cc4c[nH]c5ccccc45)NC(=O)[C@H](CCCCN)NC(=O)[C@H](CCC(N)=O)NC1=O)C(=O)N[C@@H](CC(=O)O)C(=O)N[C@@H](CO)C(=O)N[C@@H](CCCCN)C(=O)N[C@@H](CCCNC(=N)N)C(=O)N[C@@H](C)C(=O)N3)NC(=O)[C@H](CCCNC(=N)N)NC(=O)[C@H](CC(C)C)NC(=O)CNC(=O)[C@H](CCC(=O)O)NC2=O` [Pra-[Glu1, 28; Nle6]JzTx-V(1-29)], at rNav1.7, the pIC50 was 8.86 and the rNav1.7/hNav1.7 is 1.22. Also, on mNav1.7, the negative logarithm of the IC50 (pIC50) was 8.02 and the mNav1.7/hNav1.7 is on record as 8.41. Further, on mouse Nav1.4, the negative logarithm of the IC50 (pIC50) is 6.59 and the mNav1.4/mNav1.7 was found to be 27.
Turning to `C#CC[C@H](N)C(=O)N[C@@H](Cc1ccc(O)cc1)C(=O)N[C@H]1CSSC[C@@H]2NC(=O)[C@@H]3CSSC[C@@H](C(=O)N[C@@H](CCCNC(=N)N)C(=O)N[C@@H](CCCCN)C(=O)N[C@@H](CCC(=O)O)C(=O)N[C@H](C(N)=O)[C@@H](C)CC)NC(=O)[C@H](Cc4c[nH]c5ccccc45)NC(=O)[C@H](CC(C)C)NC(=O)[C@H](CCCCN)NC(=O)[C@H](CSSC[C@H](NC(=O)[C@H]([C@@H](C)O)NC(=O)[C@H](Cc4c[nH]c5ccccc45)NC(=O)[C@H](CCCC)NC(=O)[C@H](Cc4c[nH]c5ccccc45)NC(=O)[C@H](CCCCN)NC(=O)[C@H](CCC(N)=O)NC1=O)C(=O)N[C@@H](CC(=O)O)C(=O)N[C@@H](CO)C(=O)N[C@@H](CCCCN)C(=O)N[C@@H](CCCNC(=N)N)C(=O)N[C@@H](C)C(=O)N3)NC(=O)[C@H](CCCNC(=N)N)NC(=O)[C@H](CC(C)C)NC(=O)CNC(=O)[C@H](CCC(=O)O)NC2=O` [Pra-[Nle6, Glu28]JzTx-V(1-29)], at rNav1.7, the pIC50 is 9.19 and the rNav1.7/hNav1.7 is reported as 1.17. Further, at mNav1.7, the pIC50 is 8.01 and the mNav1.7/hNav1.7 was found to be 17.99. For the same compound, on mouse Nav1.4, the negative logarithm of the IC50 (pIC50) is 6.92 and the mNav1.4/mNav1.7 was determined as 12.
For `C#CC[C@H](N)C(=O)N[C@@H](Cc1ccc(O)cc1)C(=O)N[C@H]1CSSC[C@@H]2NC(=O)[C@@H]3CSSC[C@@H](C(=O)N[C@@H](CCCNC(=N)N)C(=O)N[C@@H](CCCCN)C(=O)N[C@@H](CCC(=O)O)C(=O)N[C@H](C(N)=O)[C@@H](C)CC)NC(=O)[C@H](Cc4c[nH]c5ccccc45)NC(=O)[C@H](CC(C)C)NC(=O)[C@H](CCCCN)NC(=O)[C@H](CSSC[C@H](NC(=O)[C@H]([C@@H](C)O)NC(=O)[C@H](Cc4c[nH]c5ccccc45)NC(=O)[C@H](CCCC)NC(=O)[C@H](Cc4c[nH]c5ccccc45)NC(=O)[C@H](CCCCN)NC(=O)[C@H](CCC(N)=O)NC1=O)C(=O)N[C@@H](CC(=O)O)C(=O)N[C@@H](CCC(=O)O)C(=O)N[C@@H](CCCCN)C(=O)N[C@@H](CCCNC(=N)N)C(=O)N[C@@H](C)C(=O)N3)NC(=O)[C@H](CCCNC(=N)N)NC(=O)[C@H](CC(C)C)NC(=O)CNC(=O)[C@H](CCC(=O)O)NC2=O` [Pra-[Nle6; Glu11, 28]JzTx-V(1-29)], on rNav1.7, the rNav1.7/hNav1.7 stood at 0.95. Also, on mNav1.7, the mNav1.7/hNav1.7 was determined as 10.57. At mouse Nav1.4, the mNav1.4/mNav1.7 is listed as 34.
With `C#CC[C@H](N)C(=O)N[C@@H](Cc1ccc(O)cc1)C(=O)N[C@H]1CSSC[C@@H]2NC(=O)[C@@H]3CSSC[C@@H](C(=O)N[C@@H](CCCNC(=N)N)C(=O)N[C@@H](CCCCN)C(=O)N[C@@H](CCC(=O)O)C(=O)N[C@H](C(N)=O)[C@@H](C)CC)NC(=O)[C@H](Cc4c[nH]c5ccccc45)NC(=O)[C@H](CC(C)C)NC(=O)[C@H](CCCCN)NC(=O)[C@H](CSSC[C@H](NC(=O)[C@H]([C@@H](C)O)NC(=O)[C@H](Cc4c[nH]c5ccccc45)NC(=O)[C@H](CCCC)NC(=O)[C@H](Cc4c[nH]c5ccccc45)NC(=O)[C@H](CCCCN)NC(=O)[C@H](CCC(N)=O)NC1=O)C(=O)N[C@@H](CC(=O)O)C(=O)N[C@@H](CO)C(=O)N[C@@H](CCC(=O)O)C(=O)N[C@@H](CCCNC(=N)N)C(=O)N[C@@H](C)C(=O)N3)NC(=O)[C@H](CCCNC(=N)N)NC(=O)[C@H](CC(C)C)NC(=O)CNC(=O)[C@H](CCCCN)NC2=O` [Pra-[Nle6; Glu12, 28; Lys17]JzTx-V(1-29)], at rNav1.7, the pIC50 was 8.70 and the rNav1.7/hNav1.7 came out at 0.23. For the same compound, on mNav1.7, the pIC50 is 8.36 and the mNav1.7/hNav1.7 is listed as 0.50. Moreover, at mouse Nav1.4, the pIC50 was 7.20 and the mNav1.4/mNav1.7 was 14.
Regarding `C#CC[C@H](N)C(=O)N[C@@H](Cc1ccc(O)cc1)C(=O)N[C@H]1CSSC[C@@H]2NC(=O)[C@@H]3CSSC[C@@H](C(=O)N[C@@H](CCCNC(=N)N)C(=O)N[C@@H](CCCCN)C(=O)N[C@H](C(=O)N[C@@H](Cc4c[nH]c5ccccc45)C(N)=O)[C@@H](C)CC)NC(=O)[C@H](Cc4c[nH]c5ccccc45)NC(=O)[C@H](CC(C)C)NC(=O)[C@H](CCCCN)NC(=O)[C@H](CSSC[C@H](NC(=O)[C@H]([C@@H](C)O)NC(=O)[C@H](Cc4c[nH]c5ccccc45)NC(=O)[C@H](CCCC)NC(=O)[C@H](Cc4c[nH]c5ccccc45)NC(=O)[C@H](CCCCN)NC(=O)[C@H](CCC(N)=O)NC1=O)C(=O)N[C@@H](CC(=O)O)C(=O)N[C@@H](CO)C(=O)N[C@@H](CCCCN)C(=O)N[C@@H](CCCNC(=N)N)C(=O)N[C@@H](C)C(=O)N3)NC(=O)[C@H](CCCNC(=N)N)NC(=O)[C@H](CC(C)C)NC(=O)CNC(=O)[C@H](CCC(=O)O)NC2=O` [Pra-[Nle6; Trp29]JzTx-V(1-29)], at mNav1.7, the negative-log IC50 (pIC50) was 7.97 and the mNav1.7/hNav1.7 was 2.23. In addition, at mouse Nav1.4, the negative logarithm of the IC50 (pIC50) was 8.01 and the mNav1.4/mNav1.7 is on record as 0.91.
